Test results reported in US10392368B2, “Pyrazolo and triazolo bicyclic compounds as JAK kinase inhibitors” (THERAVANCE BIOPHARMA R&D IP, LLC, priority 2017, dated 2019).

Legend:
[1] = biological target: T1, JAK3 (Homo sapiens, UniProt P52333); test: Biochemical JAK3 kinase assay (LanthaScreen); design: GST; purchased Life Technologies; details: for JAK3 (pKi)-JAK1 (pKi): selectivity: difference of pKi JAK3 and pKi JAK1
T1 sequence (P52333 1-1124): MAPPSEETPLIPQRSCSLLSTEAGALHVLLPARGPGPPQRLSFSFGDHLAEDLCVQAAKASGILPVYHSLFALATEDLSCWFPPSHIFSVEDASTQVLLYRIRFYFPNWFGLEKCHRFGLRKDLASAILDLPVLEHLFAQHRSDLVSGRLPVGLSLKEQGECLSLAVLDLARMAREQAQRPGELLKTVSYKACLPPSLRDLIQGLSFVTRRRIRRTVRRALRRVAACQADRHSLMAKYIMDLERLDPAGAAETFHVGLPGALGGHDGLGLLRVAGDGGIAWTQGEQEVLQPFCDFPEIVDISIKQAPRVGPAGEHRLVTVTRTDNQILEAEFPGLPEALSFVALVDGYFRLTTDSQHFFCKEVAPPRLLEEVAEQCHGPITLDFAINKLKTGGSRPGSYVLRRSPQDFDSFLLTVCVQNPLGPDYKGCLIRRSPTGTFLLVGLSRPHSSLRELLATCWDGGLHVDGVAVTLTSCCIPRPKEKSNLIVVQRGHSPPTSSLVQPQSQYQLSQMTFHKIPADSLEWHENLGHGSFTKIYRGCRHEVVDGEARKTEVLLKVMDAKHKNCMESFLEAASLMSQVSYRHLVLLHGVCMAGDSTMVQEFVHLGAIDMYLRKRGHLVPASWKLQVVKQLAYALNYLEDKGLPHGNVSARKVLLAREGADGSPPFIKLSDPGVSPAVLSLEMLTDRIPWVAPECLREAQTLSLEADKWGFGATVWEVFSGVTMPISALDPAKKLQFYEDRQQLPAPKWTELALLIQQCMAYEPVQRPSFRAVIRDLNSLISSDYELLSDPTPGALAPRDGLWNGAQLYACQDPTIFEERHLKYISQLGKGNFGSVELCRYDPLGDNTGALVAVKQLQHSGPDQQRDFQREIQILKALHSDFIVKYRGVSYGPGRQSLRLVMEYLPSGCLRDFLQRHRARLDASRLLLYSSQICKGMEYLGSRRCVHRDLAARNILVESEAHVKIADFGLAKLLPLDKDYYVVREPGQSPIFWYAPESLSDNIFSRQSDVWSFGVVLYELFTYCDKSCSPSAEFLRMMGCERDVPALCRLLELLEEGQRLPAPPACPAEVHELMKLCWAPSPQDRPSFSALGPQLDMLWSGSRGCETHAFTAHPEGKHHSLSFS
How it was run: (§1)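 Compounds were preincubated with the GST-tagged kinase and GFP-labelled STAT1 peptide for one hour before ATP initiated a one-hour reaction at ambient temperature. Phosphorylation was quantified by TR-FRET with a Tb-labelled pTyr701 antibody. Ki values were derived from IC50 using Cheng-Prusoff.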

[2] = biological target: T2, JAK2 (Homo sapiens, UniProt O60674); test: Biochemical JAK2 kinase assay (LanthaScreen)
T2 construct: GST; purchased Life Technologies
T2 sequence (O60674 whole entry): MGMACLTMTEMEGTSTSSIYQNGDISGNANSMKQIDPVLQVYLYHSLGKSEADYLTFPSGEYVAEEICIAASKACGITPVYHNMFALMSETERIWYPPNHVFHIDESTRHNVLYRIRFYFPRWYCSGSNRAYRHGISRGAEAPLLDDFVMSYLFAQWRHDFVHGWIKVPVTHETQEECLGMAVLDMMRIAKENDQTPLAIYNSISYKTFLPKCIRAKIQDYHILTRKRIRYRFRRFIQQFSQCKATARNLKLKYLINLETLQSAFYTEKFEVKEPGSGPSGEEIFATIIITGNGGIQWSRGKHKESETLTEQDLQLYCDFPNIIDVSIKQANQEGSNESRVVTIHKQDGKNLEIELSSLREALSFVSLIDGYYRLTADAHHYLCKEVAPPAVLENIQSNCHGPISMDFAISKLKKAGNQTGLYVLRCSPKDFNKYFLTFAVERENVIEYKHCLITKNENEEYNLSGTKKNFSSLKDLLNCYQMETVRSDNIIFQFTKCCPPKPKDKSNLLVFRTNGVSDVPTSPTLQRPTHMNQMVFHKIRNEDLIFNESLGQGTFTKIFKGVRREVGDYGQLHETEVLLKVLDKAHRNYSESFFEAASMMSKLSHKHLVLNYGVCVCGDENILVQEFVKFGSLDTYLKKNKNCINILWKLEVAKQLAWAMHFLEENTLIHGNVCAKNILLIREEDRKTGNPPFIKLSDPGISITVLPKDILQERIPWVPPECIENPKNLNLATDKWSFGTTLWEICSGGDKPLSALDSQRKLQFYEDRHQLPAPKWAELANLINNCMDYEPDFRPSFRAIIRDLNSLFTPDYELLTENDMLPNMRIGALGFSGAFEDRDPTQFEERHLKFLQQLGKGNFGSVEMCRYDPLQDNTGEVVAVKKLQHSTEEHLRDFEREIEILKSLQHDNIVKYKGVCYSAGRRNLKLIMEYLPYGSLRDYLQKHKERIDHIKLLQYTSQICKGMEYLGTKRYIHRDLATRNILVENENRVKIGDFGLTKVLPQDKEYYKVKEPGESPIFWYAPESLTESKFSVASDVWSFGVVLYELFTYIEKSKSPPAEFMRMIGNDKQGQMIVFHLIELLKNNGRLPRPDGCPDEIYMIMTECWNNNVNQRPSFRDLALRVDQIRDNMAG
How it was run: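 GST-tagged recombinant JAK2 pre-incubated 1 h at ambient temperature with compound and GFP-STAT1 peptide in HEPES pH 7.5/MgCl2 buffer, then ATP added for a 1 h reaction with 1% DMSO. TR-FRET read after EDTA and Tb-anti-pSTAT1 (pTyr701) addition; IC50 from 4-parameter fit, converted to pKi by Cheng-Prusoff.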

[3] = biological target: T3, Tyk2 (Homo sapiens, UniProt P29597); test: Biochemical Tyk2 kinase assay (LanthaScreen)
T3 construct: GST; purchased Life Technologies
T3 sequence (P29597 whole entry): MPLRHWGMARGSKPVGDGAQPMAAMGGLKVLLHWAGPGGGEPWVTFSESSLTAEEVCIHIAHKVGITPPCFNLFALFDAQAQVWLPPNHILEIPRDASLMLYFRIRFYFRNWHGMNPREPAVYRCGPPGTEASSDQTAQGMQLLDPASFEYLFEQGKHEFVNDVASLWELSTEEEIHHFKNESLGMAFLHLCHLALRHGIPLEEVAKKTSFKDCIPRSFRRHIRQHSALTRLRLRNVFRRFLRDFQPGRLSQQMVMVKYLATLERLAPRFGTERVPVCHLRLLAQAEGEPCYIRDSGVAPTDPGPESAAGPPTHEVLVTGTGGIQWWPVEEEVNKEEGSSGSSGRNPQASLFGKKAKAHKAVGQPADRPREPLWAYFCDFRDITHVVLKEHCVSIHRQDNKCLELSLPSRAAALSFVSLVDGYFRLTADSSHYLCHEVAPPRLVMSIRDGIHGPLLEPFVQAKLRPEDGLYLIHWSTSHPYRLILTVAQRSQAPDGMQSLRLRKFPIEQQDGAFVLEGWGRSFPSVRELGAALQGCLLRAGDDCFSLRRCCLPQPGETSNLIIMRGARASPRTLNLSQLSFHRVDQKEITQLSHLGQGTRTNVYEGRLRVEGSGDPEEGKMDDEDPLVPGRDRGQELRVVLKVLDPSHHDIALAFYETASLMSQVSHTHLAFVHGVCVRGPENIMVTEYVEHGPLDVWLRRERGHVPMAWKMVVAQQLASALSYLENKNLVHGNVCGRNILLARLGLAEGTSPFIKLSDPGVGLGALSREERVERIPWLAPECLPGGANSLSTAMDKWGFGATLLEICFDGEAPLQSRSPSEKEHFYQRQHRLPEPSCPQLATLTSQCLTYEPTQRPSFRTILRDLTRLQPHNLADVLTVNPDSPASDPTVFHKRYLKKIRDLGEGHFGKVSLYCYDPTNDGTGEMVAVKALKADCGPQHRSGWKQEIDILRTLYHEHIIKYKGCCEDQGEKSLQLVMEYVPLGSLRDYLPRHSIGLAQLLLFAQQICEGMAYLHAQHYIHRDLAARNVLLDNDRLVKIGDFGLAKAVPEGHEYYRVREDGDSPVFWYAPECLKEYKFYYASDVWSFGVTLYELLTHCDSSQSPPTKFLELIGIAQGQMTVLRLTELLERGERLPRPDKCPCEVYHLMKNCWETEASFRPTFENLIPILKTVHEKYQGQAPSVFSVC
How it was run: as §1

[4] = biological target: T4, JAK1 (Homo sapiens, UniProt P23458); test: Biochemical JAK1 kinase assay (LanthaScreen)
T4 construct: GST; purchased Life Technologies
T4 sequence (P23458 whole entry): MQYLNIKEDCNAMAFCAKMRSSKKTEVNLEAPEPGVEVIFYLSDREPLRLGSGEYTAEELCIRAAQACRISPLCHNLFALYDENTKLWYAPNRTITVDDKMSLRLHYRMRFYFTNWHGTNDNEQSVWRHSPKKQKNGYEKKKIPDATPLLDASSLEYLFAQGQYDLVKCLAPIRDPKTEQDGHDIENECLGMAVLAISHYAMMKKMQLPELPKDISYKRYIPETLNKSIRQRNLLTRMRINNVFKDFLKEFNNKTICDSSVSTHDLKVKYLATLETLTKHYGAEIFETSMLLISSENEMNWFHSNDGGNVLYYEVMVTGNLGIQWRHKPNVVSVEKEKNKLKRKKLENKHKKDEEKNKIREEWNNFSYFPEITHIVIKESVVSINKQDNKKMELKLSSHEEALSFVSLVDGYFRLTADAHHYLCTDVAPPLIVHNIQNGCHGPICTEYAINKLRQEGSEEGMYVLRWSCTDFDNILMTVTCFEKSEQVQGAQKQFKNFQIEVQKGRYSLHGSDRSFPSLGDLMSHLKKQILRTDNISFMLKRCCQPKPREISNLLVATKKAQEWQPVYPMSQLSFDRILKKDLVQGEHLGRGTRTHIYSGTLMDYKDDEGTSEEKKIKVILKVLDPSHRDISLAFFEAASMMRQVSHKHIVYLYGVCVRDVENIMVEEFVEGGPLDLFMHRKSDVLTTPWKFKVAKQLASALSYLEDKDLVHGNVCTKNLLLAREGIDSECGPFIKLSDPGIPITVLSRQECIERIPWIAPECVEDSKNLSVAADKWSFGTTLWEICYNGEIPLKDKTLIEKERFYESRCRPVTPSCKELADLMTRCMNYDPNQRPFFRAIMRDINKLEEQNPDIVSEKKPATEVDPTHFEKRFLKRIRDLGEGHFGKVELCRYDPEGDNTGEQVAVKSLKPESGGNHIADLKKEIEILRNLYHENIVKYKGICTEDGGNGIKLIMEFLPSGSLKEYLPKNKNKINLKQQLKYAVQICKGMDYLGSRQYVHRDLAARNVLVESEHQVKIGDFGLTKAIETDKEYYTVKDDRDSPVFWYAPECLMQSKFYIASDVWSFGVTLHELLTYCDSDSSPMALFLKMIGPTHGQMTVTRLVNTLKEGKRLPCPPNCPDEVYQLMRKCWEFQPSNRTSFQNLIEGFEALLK
How it was run: as §1

[5] = test system: IL-2 stimulated pSTAT5 in Tall-1 T cells; test: Cellular JAK3 potency assay: inhibition of IL-2 stimulated pSTAT5 in Tall-1 T cells; type: cell-based, human; details: IL-2 stimulated pSTAT5 in Tall-1 T cells
How it was run: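 In human Tall-1 T cells, IL-2 (300 ng/ml final, 30 min) drives STAT5 phosphorylation after a 1 h compound pretreatment. Lysates are assayed for pSTAT5 by AlphaLisa, and IC50 derived from signal versus concentration is expressed as pIC50.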

SMILES	JAK 3 (pKi) [1]	JAK3 (pKi)-JAK1 (pKi) [1]	JAK 2 (pKi) [2]	Tyk 2 (pKi) [3]	JAK 1 (pKi) [4]	Tall-1 (pIC50) [5]
CN(C)C/C=C/C(=O)N1CC(Oc2cc(-c3ccc(O)c(Cl)c3)cc3[nH]ncc23)C1 [Compound 5-3]	A (a pKi value≥10 (Ki≤0.1 nM))	A (a value of 3 or above)	E (a pKi value of 7 or below (Ki of 100 nM or above))	E (a pKi value of 7 or below (Ki of 100 nM or above))	E (a pKi value of 7 or below (Ki of 100 nM or above))	A (a pIC50 value≥7.5 (IC50≤32 nM))
C=CC(=O)N1CC(Oc2cc(-c3ccc(O)c(Cl)c3)cc3[nH]ncc23)C1 [Compound 5-4]	B (a pKi value between 9 and 10 (Ki between 1 nM and 0.1 nM))	A (a value of 3 or above)	E (a pKi value of 7 or below (Ki of 100 nM or above))	E (a pKi value of 7 or below (Ki of 100 nM or above))	E (a pKi value of 7 or below (Ki of 100 nM or above))	A (a pIC50 value≥7.5 (IC50≤32 nM))
CN(C)C/C=C/C(=O)N1CC(Oc2cc(-c3ccc(O)c(F)c3)cc3[nH]ncc23)C1 [Compound 5-5]	A (a pKi value≥10 (Ki≤0.1 nM))	A (a value of 3 or above)	D (a pKi value between 7 and 8 (Ki between 100 nM and 10 nM))	E (a pKi value of 7 or below (Ki of 100 nM or above))	E (a pKi value of 7 or below (Ki of 100 nM or above))	B (a pIC50 value between 6.7 (included) and 7.5 (IC50 between 200 nM and 32 nM))
C=CC(=O)N1CC(Oc2cc(-c3ccc(O)c(F)c3)cc3[nH]ncc23)C1 [Compound 5-6]	B (a pKi value between 9 and 10 (Ki between 1 nM and 0.1 nM))	A (a value of 3 or above)	E (a pKi value of 7 or below (Ki of 100 nM or above))	E (a pKi value of 7 or below (Ki of 100 nM or above))	E (a pKi value of 7 or below (Ki of 100 nM or above))	B (a pIC50 value between 6.7 (included) and 7.5 (IC50 between 200 nM and 32 nM))
C=CC(=O)N1CC(Nc2cc(-c3ccc(O)cc3)cc3[nH]ncc23)C1 [Compound 5-7]	A (a pKi value≥10 (Ki≤0.1 nM))	A (a value of 3 or above)	D (a pKi value between 7 and 8 (Ki between 100 nM and 10 nM))	E (a pKi value of 7 or below (Ki of 100 nM or above))	E (a pKi value of 7 or below (Ki of 100 nM or above))	B (a pIC50 value between 6.7 (included) and 7.5 (IC50 between 200 nM and 32 nM))
C=CC(=O)N1CC(C)(Oc2cc(-c3ccc(O)cc3)cc3[nH]ncc23)C1 [Compound 5-12]	B (a pKi value between 9 and 10 (Ki between 1 nM and 0.1 nM))	A (a value of 3 or above)	E (a pKi value of 7 or below (Ki of 100 nM or above))	E (a pKi value of 7 or below (Ki of 100 nM or above))	E (a pKi value of 7 or below (Ki of 100 nM or above))	B (a pIC50 value between 6.7 (included) and 7.5 (IC50 between 200 nM and 32 nM))
C=CC(=O)N1CC(Oc2cc(-c3ccc(O)cc3)cc3[nH]ncc23)(C(F)F)C1 [Compound 5-14]	A (a pKi value≥10 (Ki≤0.1 nM))	A (a value of 3 or above)	E (a pKi value of 7 or below (Ki of 100 nM or above))	E (a pKi value of 7 or below (Ki of 100 nM or above))	E (a pKi value of 7 or below (Ki of 100 nM or above))	A (a pIC50 value≥7.5 (IC50≤32 nM))
